Results taken from PMC7577125 (Antimicrobial Agents and Chemotherapy, 2020).
Where two headings read alike, the source gives them in different places.

How the values were obtained:
HBV cccDNA = test: cccDNA formation assay in infected HepG2-NTCP cells (Southern blot); type: cell-based; details: Hepatitis B virus, 96 h, 4 days, read-out: cccDNA % of Control
HBV capsid DNA [1] = test: Incoming capsid assay in PHH cells; type: cell-based; details: Hepatitis B virus, 3 h, read-out: Capsid DNA % of Control
in vitro [2] = details: human
[3] = system: HBV (genotype D, subtype ayw); test: HBV replication assay in HepAD38 cells; type: cell-based, Hepatitis B virus; details: Hepatitis B virus
HBV capsid DNA [4] = test: Incoming capsid assay in HepG2-NTCP cells; type: cell-based; details: Hepatitis B virus, 3 h, read-out: Capsid DNA % of Control
CYP2B6 = target: T1, CYP2B6 (Homo sapiens, UniProt P20813); test: CYP inhibition in human liver microsomes, 2B6; type: in vitro ADME; details: 0.1–100 μM
T1 construct: in human liver microsomes; from tissue; host or cells: human liver microsomes

HBV Cp Y38F = test: microbe, parasite or virus in culture; type: cell-based, Hepatitis B virus
in vitro [5] = details: for half-life at 1 μM: hepatocytes; for half-life at 0.5 μM: microsomes
Description: In vitro intrinsic clearance (CLint) was determined as follows. […] The calculated CLint was determined from the relationship CLint = k × (volume of incubation in ml/mg microsomal protein) × (mg protein in liver/g liver weight) × (g liver weight/kg body weight). The values for liver weights, body weights, as well as hepatic blood flows (QH) across species were obtained from data reported previously by Davies and Morris ([28]). Values for liver microsome protein/liver weight for mouse, rat, dog, and monkey were […] ([27]), and that for human was 33 mg/g. The calculation used for the prediction of hepatic clearance (CLpred) is CLpred = (QH × CLint)/(QH + CLint).

T1 sequence (P20813 whole entry): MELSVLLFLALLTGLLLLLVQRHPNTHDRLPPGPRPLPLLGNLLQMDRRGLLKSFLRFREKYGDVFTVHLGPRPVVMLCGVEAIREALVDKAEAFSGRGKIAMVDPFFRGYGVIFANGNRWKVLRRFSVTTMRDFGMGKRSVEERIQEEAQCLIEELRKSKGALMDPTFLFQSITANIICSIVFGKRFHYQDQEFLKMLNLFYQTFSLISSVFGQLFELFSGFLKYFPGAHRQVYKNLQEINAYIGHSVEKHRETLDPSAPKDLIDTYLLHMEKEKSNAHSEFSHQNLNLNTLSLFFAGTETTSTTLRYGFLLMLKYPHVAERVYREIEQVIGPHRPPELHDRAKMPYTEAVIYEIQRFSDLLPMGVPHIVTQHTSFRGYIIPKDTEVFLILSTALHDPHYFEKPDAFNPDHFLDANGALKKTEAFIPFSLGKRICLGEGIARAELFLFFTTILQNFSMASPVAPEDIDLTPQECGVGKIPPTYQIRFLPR

O=C(NCc1cnc(C(F)(F)F)s1)c1ccc2c(c1)NC(=O)c1ccccc1S2(=O)=O [ABI-H0731]
activity at 0.04 µM (HBV cccDNA; 0.04 μM): 89% | activity at 0.12 µM (HBV cccDNA; 0.12 μM): 95% | activity at […] (HBV cccDNA; 0.37 μM): 98% | activity at 1.11 µM (HBV cccDNA; 1.11 μM): 94% | activity at 3.33 µM (HBV cccDNA; 3.33 μM): 86% | activity at 10 µM (HBV cccDNA; 10.0 μM): 30% | activity at […] (HBV capsid DNA [1]; 0.37 μM): 71% | activity at 1.11 µM (HBV capsid DNA [1]; 1.11 μM): 60% | activity at 3.33 µM (HBV capsid DNA [1]; 3.33 μM): 32% | activity at 10 µM (HBV capsid DNA [1]; 10.0 μM): 9% | recovery at 4 days, 10 μM (in vitro [2]): 67 to 84% | EC50 ([3]; HePAD38, HepAD38, concomitantly determined with HepG2-NrtI^R, read-out: Mean EC50): 221 ± 19 nM | EC50 ([3]; HePAD38, HepAD38, total intracellular viral DNA, read-out: Mean EC50, viral DNA): 173 ± 40 nM | activity at 0.04 µM (HBV capsid DNA [4]; 0.04 μM): 105% | activity at 0.12 µM (HBV capsid DNA [4]; 0.12 μM): 107% | activity at […] (HBV capsid DNA [4]; 0.37 μM): 103% | activity at 1.11 µM (HBV capsid DNA [4]; 1.11 μM): 91% | activity at 3.33 µM (HBV capsid DNA [4]; 3.33 μM): 73% | activity at 10 µM (HBV capsid DNA [4]; 10.0 μM): 10% | IC50 (CYP2B6): 27700 nM | EC50 (HBV Cp Y38F; Hepatitis B virus, Huh-7, read-out: Mean EC50): 481 ± 34 nM | Fold shift (HBV Cp Y38F; Y38F vs wild type): 3.3 fold | % LBF (in vitro [5]; cynomolgus monkey, 0.5 μM): 15% | CLpred (in vitro [5]; cynomolgus monkey, 0.5 μM): 4.7 mL/min/kg | % LBF (in vitro [5]; cynomolgus monkey, 1 μM): 15% | CLpred (in vitro [5]; cynomolgus monkey, 1 μM): 4.7 mL/min/kg | % LBF (in vitro [5]; dog, 0.5 μM): 65% | CLpred (in vitro [5]; dog, 0.5 μM): 20 mL/min/kg | % LBF (in vitro [5]; dog, 1 μM): 81% | CLpred (in vitro [5]; dog, 1 μM): 25 mL/min/kg | half-life at 1 μM (in vitro [5]; dog): 0.667 h | half-life at 0.5 μM (in vitro [5]; dog): 0.622 h | % LBF (in vitro [5]; human, 0.5 μM): 13% | CLpred (in vitro [5]; human, 0.5 μM): 2.8 mL/min/kg | % LBF (in vitro [5]; human, 1 μM): 11% | CLpred (in vitro [5]; human, 1 μM): 2.3 mL/min/kg | half-life at 1 μM (in vitro [5]; human): 11.6 h | half-life at 0.5 μM (in vitro [5]; human): 6.27 h | half-life at 1 μM (in vitro [5]; monkey): 7.92 h | half-life at 0.5 μM (in vitro [5]; monkey): 5.98 h | % LBF (in vitro [5]; mouse, 0.5 μM): 21% | CLpred (in vitro [5]; mouse, 0.5 μM): 19 mL/min/kg | half-life at 0.5 μM (in vitro [5]; mouse): 2.33 h | % LBF (in vitro [5]; rat, 0.5 μM): 12% | CLpred (in vitro [5]; rat, 0.5 μM): 7.9 mL/min/kg | half-life at 0.5 μM (in vitro [5]; rat): 4.62 h
